In patent US6455284B1, “Metabolically engineered E. coli for enhanced production of oxaloacetate-derived biochemicals” (The University of Georgia Research Foundation, Inc., priority 1998, dated 2002):

Experiments:
[1] = molecular target: R. etli pyruvate carboxylase (Rhizobium etli, UniProt Q2K340); experiment: Pyruvate carboxylase (PC) coupled enzyme assay (Payne and Morris) with E. coli cell extracts; type: biochemical; details: for effect of nicotinamide nucleotides on pyruvate carboxylase activity: cell-free crude extract from MG1655 pTrc99A-pyc, FIG. 9
Method: Pyruvate carboxylase (PC) enzyme assay. For pyruvate carboxylase activity measurements, 100 mL of mid-log phase culture was harvested by centrifugation at 7,000×g for 15 minutes at 4° C. and washed with 10 mL of 100 mM Tris-Cl (pH 8.0). The cells were then resuspended in 4 mL of 100 mM Tris-Cl (pH 8.0) and subsequently subjected to cell disruption by sonication. The cell debris was removed by centrifugation at 20,000×g for 15 minutes at 4° C. The pyruvate carboxylase activity was measured by the method of Payne and Morris (J. Gen. Microbiol., 59, 97-101 (1969)). In this assay the oxaloacetate produced by pyruvate carboxylase is converted to citrate by the addition of citrate synthase in the presence of acetyl CoA and 5,5-dithio-bis(2-nitro-benzoate) (DTNB) (Aldrich Chemical Co.); the homotetramer pyruvate carboxylase enzyme from R. etli requires acetyl coenzyme A for activation. The rate of increase in absorbence at 412 nm due to the presence of CoA-dependent formation of the 5-thio-2-nitrobenzoate was monitored, first after the addition of pyruvate and then after the addition of ATP. The difference between these two rates was taken as the ATP-dependent pyruvate carboxylase activity. The concentration of reaction components per milliliter of mixture was as follows: 100 mM Tris-Cl (pH 8.0), 5 mM MgCl2.H2O, 50 mM Na HCO3, 0.1 mM acetyl CoA, 0.25 mM DTNB, and 5 units (U) of citrate synthase. Pyruvate, ATP, ADP, or aspartate, were added as specified in the Results section, below. The reaction was started by adding 50 μl of cell extract. One unit of pyruvate carboxylase activity corresponds to the formation of 1 μmol of 5-thio-2-nitrobenzoate per mg of protein per minute. All enzyme assays were performed in triplicate and a standard error of less then 10% was observed. The total protein in the cell extracts was determined by the Lowry method (O. Lowry et al., J. Biol. Chem., 193, 265-275 (1951)).
R. etli pyruvate carboxylase can convert pyruvate to oxaloacetate in E. coli. To confirm that the expressed pyruvate carboxylase protein was enzymatically active in E. coli, the coupled enzyme assay developed by Payne and Morris was employed to assess pyruvate carboxylase activity (J. Payne et al., J. Gen. Microbiol., 59, 97-101 (1969)). Cell extracts containing the induced pUC18-pyc construct (MG1655 pUC18-pyc) were tested for pyruvate carboxylase activity using varying amounts of pyruvate, and compared to controls containing the pUC18 construct (MG1655 pUC18). ATP was added at a final concentration of 5 mM to the reaction mixture and pyruvate carboxylase activity was determined in the presence of increasing amounts of pyruvate. […] This value is in excellent agreement with other pyruvate carboxylase enzymes that have been studied (H. Feir et al., Can. J. Biochem., 47, 698-710 (1969); H. Modak et al., Microbiol., 141, 2619-2628 (1995); M. Scrutton et al., Arch. Biochem. Biophys., 164, 641-654 (1974)).
It is well documented that the α4 pyruvate carboxylase enzymes can be inhibited by either aspartate or adenosine diphosphate (ADP). Aspartate is the first amino acid that is synthesized from oxaloacetate and ADP is liberated when pyruvate carboxylase converts pyruvate to oxaloacetate. Pyruvate carboxylase activity in the presence of each of these inhibitors was evaluated using extracts of MG1655 cells that contained the pUC18-pyc construct. The effect of aspartate was analyzed by adding ATP and pyruvate to the reaction mixture to final concentrations of 5 mM and 6 mM, respectively, then determining pyruvate carboxylase activity in the presence of increasing amounts of aspartate. […] As expected, the pyruvate carboxylase activity was inhibited by aspartate and the specific activity decreased to approximately 43% in the presence of 8 mM aspartate. The effect of ADP was analyzed by adding pyruvate to the reaction mixture to a final concentration of 5 mM, then determining pyruvate carboxylase activity in the presence of increasing amounts of […]. […]

[2] = test system: biotinylated R. etli pyruvate carboxylase expressed in E. coli; experiment: Western blot of in vivo biotinylated pyruvate carboxylase in MG1655 pUC18-pyc cells grown with varying biotin; type: cell-based; details: M9 media, 37° C., mid-log
Method: Protein gels and Western blotting. Heat-denatured cell extracts were separated on 10% SDS-PAGE gels as per Altman et. al. (J. Bact., 155, 1130-1137 (1983)) and Western blots were carried out as per Carroll and Gherardini (Infect. Immun., 64, 392-398 (1996)). ALS225 E. coli cells containing either pUC18 or pUC18-pyc were grown to mid-log in rich media at 37° C. both in the presence and absence of IPTG. Because ALS225 contains lacIq1 on the F′, significant induction of the pUC18-pyc construct should not occur unless IPTG is added. Protein extracts were prepared, subjected to SDS PAGE, and Western blotted. Proteins which had been biotinylated in vivo were then detected using the Sigma-Blot protein detection kit (Sigma Chemical Corp., St. Louis, Mo.). The instructions of the manufacturer were followed except that during the development of the western blots the protein biotinylation step was omitted, thus allowing for the detection of only those proteins which had been biotinylated in vivo.
Effects of biotin and biotin holoenzyme synthase on the expression of biotinylated R. etli pyruvate carboxylase in E. coli. […] Proteins which had been biotinylated in vivo were then detected using the Sigma-Blot protein detection kit, as described above. […] The amount of biotinylated pyruvate carboxylase that was present in each sample was quantitated using a Stratagene Eagle Eye II Still Video. […]

[3] = substrate: CC(=O)C(=O)O; experiment: Pyruvate carboxylase (PC) coupled enzyme assay (Payne and Morris) with E. coli cell extracts; type: biochemical, R. etli; details: other: MG1655 pUC18-pyc extract; ATP 5 mM; Lineweaver-Burke plot; pH 8.0
Method: Pyruvate carboxylase (PC) enzyme assay. For pyruvate carboxylase activity measurements, 100 mL of mid-log phase culture was harvested by centrifugation at 7,000×g for 15 minutes at 4° C. and washed with 10 mL of 100 mM Tris-Cl (pH 8.0). The cells were then resuspended in 4 mL of 100 mM Tris-Cl (pH 8.0) and subsequently subjected to cell disruption by sonication. The cell debris was removed by centrifugation at 20,000×g for 15 minutes at 4° C. The pyruvate carboxylase activity was measured by the method of Payne and Morris (J. Gen. Microbiol., 59, 97-101 (1969)). […] The rate of increase in absorbence at 412 nm due to the presence of CoA-dependent formation of the 5-thio-2-nitrobenzoate was monitored, first after the addition of pyruvate and then after the addition of ATP. […] The total protein in the cell extracts was determined by the Lowry method (O. Lowry et al., J. Biol. Chem., 193, 265-275 (1951)).
R. etli pyruvate carboxylase can convert pyruvate to oxaloacetate in E. coli. […] ATP was added at a final concentration of 5 mM to the reaction mixture and pyruvate carboxylase activity was determined in the presence of increasing amounts of pyruvate. […]

Molecule: Nc1ncnc2c1ncn2[C@@H]1O[C@H](COP(=O)(O)OP(=O)(O)OP(=O)(O)O)[C@@H](O)[C@H]1O [ATP]
- Km ([1]; MG1655 pUC18-pyc extract, pyruvate 5 mM, Lineweaver-Burke plot, read-out: saturation constant (Km) for expressed pyruvate carboxylase with respect to ATP): 193 µM

Molecule: NC(=O)C1=CN([C@@H]2O[C@H](COP(=O)(O)OP(=O)(O)OC[C@H]3O[C@@H](n4cnc5c(N)ncnc54)[C@H](O)[C@@H]3O)[C@@H](O)[C@H]2O)C=CC1 [NADH, reduced nicotinamide adenine dinucleotide]
- effect of nicotinamide nucleotides on pyruvate carboxylase activity [1]: inhibited pyruvate carboxylase

Molecule: O=C(O)CCCC[C@@H]1SC[C@@H]2NC(=O)N[C@@H]21 [biotin]
- biotin concentration sufficient to biotinylate all of the expressed pyruvate carboxylase [2]: 50 ng/mL

Molecule: N[C@@H](CC(=O)O)C(=O)O [aspartate]
- remaining activity at 8000 µM ([1]; read-out: pyruvate carboxylase specific activity remaining): ~43%

Molecule: NC(=O)c1ccc[n+]([C@@H]2O[C@H](COP(=O)([O-])OP(=O)(O)OC[C@H]3O[C@@H](n4cnc5c(N)ncnc54)[C@H](OP(=O)(O)O)[C@@H]3O)[C@@H](O)[C@H]2O)c1 [NADP+]
- effect of nicotinamide nucleotides on pyruvate carboxylase activity [1]: did not

Molecule: NC(=O)c1ccc[n+]([C@@H]2O[C@H](COP(=O)([O-])OP(=O)(O)OC[C@H]3O[C@@H](n4cnc5c(N)ncnc54)[C@H](O)[C@@H]3O)[C@@H](O)[C@H]2O)c1 [NAD+]
- effect of nicotinamide nucleotides on pyruvate carboxylase activity [1]: did not

Molecule: Nc1ncnc2c1ncn2[C@@H]1O[C@H](COP(=O)(O)OP(=O)(O)O)[C@@H](O)[C@H]1O [ADP, adenosine diphosphate]
- Ki [1]: 142 µM
- mode of inhibition of pyruvate carboxylase ([1]; MG1655 pUC18-pyc extract, pyruvate 5 mM, increasing ATP): competitive inhibitor of ATP

Molecule: NC(=O)C1=CN([C@@H]2O[C@H](COP(=O)(O)OP(=O)(O)OC[C@H]3O[C@@H](n4cnc5c(N)ncnc54)[C@H](OP(=O)(O)O)[C@@H]3O)[C@@H](O)[C@H]2O)C=CC1 [NADPH]
- effect of nicotinamide nucleotides on pyruvate carboxylase activity [1]: did not

B1: R. etli pyruvate carboxylase (Rhizobium etli CFN 42) (protein)
chain: MPISKILVANRSEIAIRVFRAANELGIKTVAIWAEEDKLALHRFKADESYQVGRGPHLARDLGPIESYLSIDEVIRVAKLSGADAIHPGYGLLSESPEFVDACNKAGIIFIGPKADTMRQLGNKVAARNLAISVGVPVVPATEPLPDDMAEVAKMAAAIGYPVMLKASWGGGGRGMRVIRSEADLAKEVTEAKREAMAAFGKDEVYLEKLVERARHVESQILGDTHGNVVHLFERDCSVQRRNQKVVERAPAPYLSEAQRQELAAYSLKIAGATNYIGAGTVEYLMDADTGKFYFIEVNPRIQVEHTVTEVVTGIDIVKAQIHILDGAAIGTPQSGVPNQEDIRLNGHALQCRVTTEDPEHNFIPDYGRITAYRSASGFGIRLDGGTSYSGAIITRYYDPLLVKVTAWAPNPLEAISRMDRALREFRIRGVATNLTFLEAIIGHPKFRDNSYTTRFIDTTPELFQQVKRQDRATKLLTYLADVTVNGHPEAKDRPKPLENAARPVVPYANGNGVKDGTKQLLDTLGPKKFGEWMRNEKRVLLTDTTMRDGHQSLLATRMRTYDIARIAGTYSHALPNLLSLECWGGATFDVSMRFLTEDPWERLALIREGAPNLLLQMLLRGANGVGYTNYPDNVVKYFVRQAAKGGIDLFRVFDCLNWVENMRVSMDAIAEENKLCEAAICYTGDILNSARPKYDLKYYTNLAVELEKAGAHIIAVKDMAGLLKPAAAKVLFKALREATGLPIHFHTHDTSGIAAATVLAAVEAGVDAVDAAMDALSGNTSQPCLGSIVEALSGSERDPGLDPAWIRRISFYWEAVRNQYAAFESDLKGPASEVYLHEMPGGQFTNLKEQARSLGLETRWHQVAQAYADANQMFGDIVKVTPSSKVVGDMALMMVSQDLTVADVVSPDREVSFPESVVSMLKGDLGQPPSGWPEALQKKALKGEKPYTVRPGSLLKEADLDAERKVIEKKLEREVSDFEFASYLMYPKVFTDFALASDTYGPVSVLPTPAYFYGLADGEELFADIEKGKTLVIVNQAVSATDSQGMVTVFFELNGQPRRIKVPDRAHGATGAAVRRKAEPGNAAHVGAPMPGVISRVFVSSGQAVNAGDVLVSIEAMKMETAIHAEKDGTIAEVLVKAGDQIDAKDLLAVYGG
- Km [3]: 249 µM
